Data on eight molecules can be found in US11708348B2, “Protease inhibitors for treatment of coronavirus infections” (The Scripps Research Institute, priority 2021, dated 2023).

Some results are limits rather than exact numbers.

Broadly, the EC50 is the concentration at which the effect is half-maximal.

This assay has as its system SARS-CoV-2 strain USA-WA1/2020. As to the kind of experiment: microbe, parasite or virus in culture. Type of assay: cell-based. Particulars: Severe acute respiratory syndrome coronavirus 2, HeLa-ACE2, 24 h, HeLa-ACE2 cells, SARS-CoV-2 infection, 24 h; class symbols; read-out: EC50, uM (Hela).
Regarding `CC(C)C[C@H](NC(=O)C12CC(C(F)(F)F)(CO1)C2)C(=O)N[C@@H](C[C@@H]1CCNC1=O)C(=O)COC(F)(F)F` [Compound 316, N-((S)-4-methyl-1-oxo-1-(((S)-3-oxo-1-((S)-2-oxopyrrolidin-3-yl)-4-(trifluoromethoxy)butan-2-yl)amino)pentan-2-yl)-4-(trifluoromethyl)-2-oxabicyclo-[2.1.1]hexane-1-carboxamide], the EC50 was less than 0.05 µM.

As to `O=C1NCC[C@H]1C[C@H](NC(=O)[C@@H]1CC2(CC2)CN1C(=O)C12CC(C(F)(F)F)(CO1)C2)C(=O)COC(F)(F)F` [Compound 317, (6S)—N-[(2S)-3-oxo-1-[(3S)-2-oxopyrrolidin-3-yl]-4-(trifluoromethoxy)butan-2-yl]-5-[4-(trifluoromethyl)-2-oxabicyclo[2.1.1]hexane-1-carbonyl]-5-azaspiro[2.4]heptane-6-carboxamide], the EC50 was less than 0.05 µM.

Regarding `CC1(C)[C@@H]2[C@@H](C(=O)N[C@@H](C[C@@H]3CCNC3=O)C(=O)COC(F)(F)F)N(C(=O)C34CC(C(F)(F)F)(CO3)C4)C[C@@H]21` [Compound 318, (1R,2S,5S)-6,6-dimethyl-N-((S)-3-oxo-1-((S)-2-oxopyrrolidin-3-yl)-4-(trifluoromethoxy)butan-2-yl)-3-(4-(trifluoromethyl)-2-oxabicyclo[2.1.1]-hexane-1-carbonyl)-3-azabicyclo[3.1.0]-hexane-2-carboxamide], the EC50 was in the range of 0.05 to 0.2 µM.

For `CC(C)C[C@H](NC(=O)C12CC(C(F)F)(CO1)C2)C(=O)N[C@@H](C[C@@H]1CCNC1=O)C(=O)COC(F)(F)F` [Compound 319, 4-(difluoromethyl)-N-((S)-4-methyl-1-oxo-1-(((S)-3-oxo-1-((S)-2-oxopyrrolidin-3-yl)-4-(trifluoromethoxy)butan-2-yl)amino)pentan-2-yl)-2-oxabicyclo-[2.1.1]hexane-1-carboxamide], the EC50 was less than 0.05 µM.

As for `O=C1NCC[C@H]1C[C@H](NC(=O)[C@@H]1CC2(CC2)CN1C(=O)C12CC(C(F)F)(CO1)C2)C(=O)COC(F)(F)F` [Compound 320, (S)-5-(4-(difluoromethyl)-2-oxabicyclo[2.1.1]-hexane-1-carbonyl)-N-((S)-3-oxo-1-((S)-2-oxopyrrolidin-3-yl)-4-(trifluoromethoxy)butan-2-yl)-5-azaspiro[2.4]-heptane-6-carboxamide], the EC50 was 0.2 to 0.5 µM.

With `O=C1NCC[C@H]1C[C@H](NC(=O)[C@@H]1[C@H]2CCC[C@H]2CN1C(=O)C12CC(C(F)F)(CO1)C2)C(=O)COC(F)(F)F` [Compound 321, (1S,3aR,6aS)-2-(4-(difluoromethyl)-2-oxabicyclo[2.1.1]hexane-1-carbonyl)-N-((S)-3-oxo-1-((S)-2-oxopyrrolidin-3-yl)-4-(trifluoromethoxy)butan-2-yl)octahydrocyclopenta-[c]pyrrole-1-carboxamide], the EC50 lay within 0.05 to 0.2 µM.

As to `CC1(C)[C@@H]2[C@@H](C(=O)N[C@@H](C[C@@H]3CCNC3=O)C(=O)COC(F)(F)F)N(C(=O)C34CC(C(F)F)(CO3)C4)C[C@@H]21` [Compound 322, (1R,2S,5S)-3-(4-(difluoromethyl)-2-oxabicyclo[2.1.1]-hexane-1-carbonyl)-6,6-dimethyl-N-((S)-3-oxo-1-((S)-2-oxopyrrolidin-3-yl)-4-(trifluoromethoxy)butan-2-yl)-3-azabicyclo-[3.1.0]hexane-2-carboxamide], the EC50 was 0.05 to 0.2 µM.

For the molecule `O=C1NCC[C@H]1C[C@H](NC(=O)[C@@H]1[C@H]2CCC[C@H]2CN1C(=O)C1OCCC1(F)F)C(=O)COC(F)(F)F` (stereo partly drawn) [Compound 323, (1S,3aR,6aS)-2-(3,3-difluorotetrahydrofuran-2-carbonyl)-N-((S)-3-oxo-1-((S)-2-oxopyrrolidin-3-yl)-4-(trifluoromethoxy)butan-2-yl)octahydrocyclo-penta[c]pyrrole-1-carboxamide], the EC50 is 0.05 to 0.2 µM.
